Measured values published in PMC12212144, “The VanS sensor histidine kinase from type-B vancomycin-resistant enterococci recognizes vancomycin directly” (The Journal of Biological Chemistry, 2025).

How the values were obtained:
[1] = biological target: T1, cVanSB (cytosolic domain of VanSB) (Enterococcus faecalis, UniProt Q47745); assay: autophosphorylation with ATPγS, anti-thiophosphohistidine (PNBM) Western blot; format: biochemical; conditions: 1 mM ATPγS, 10 mM MgCl2, pH 7.4; not affected by vancomycin
T1 construct: cytosolic domain M159-L447, C-terminal His6 (pETCH), expressed in E. coli

[2] = biological target: T2, single-copy VanSB periplasmic sensor domain (Enterococcus faecalis, UniProt Q47745); assay: fluorescence anisotropy; format: binding; set-up: periplasmic sensor domain Q31-G132, single copy; expressed in E. coli as TEV-cleavable 6xHis-MBP fusion, tag removed; conditions: labelled compound, 100 nM; 20 mM Tris pH 7.5, 100 mM NaCl, 0.01% Triton X-100, room temperature
[3] = biological target: T3, tandem VanSB periplasmic sensor domain (Enterococcus faecalis, UniProt Q47745); assay: fluorescence anisotropy; format: binding; set-up: two copies of periplasmic domain Q31-G132 in one polypeptide joined by GSGGS linker; expressed in E. coli as TEV-cleavable 6xHis-MBP fusion, tag removed; conditions: labelled compound, 100 nM; 20 mM Tris pH 7.5, 100 mM NaCl, 0.01% Triton X-100, room temperature
[4] = biological target: T2, single-copy VanSB periplasmic sensor domain; assay: biochemical
[5] = biological target: full-length VanSB (in nanodiscs) (Enterococcus faecalis, UniProt Q47745); assay: biochemical
[6] = biological target: T3, tandem VanSB periplasmic sensor domain; assay: biochemical

T3 sequence (Q47745 31-132): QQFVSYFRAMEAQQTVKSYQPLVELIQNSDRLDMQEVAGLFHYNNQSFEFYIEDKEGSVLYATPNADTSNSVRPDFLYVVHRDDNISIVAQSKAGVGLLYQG
T2 sequence (Q47745 31-132): as above
T1 sequence (Q47745 159-447): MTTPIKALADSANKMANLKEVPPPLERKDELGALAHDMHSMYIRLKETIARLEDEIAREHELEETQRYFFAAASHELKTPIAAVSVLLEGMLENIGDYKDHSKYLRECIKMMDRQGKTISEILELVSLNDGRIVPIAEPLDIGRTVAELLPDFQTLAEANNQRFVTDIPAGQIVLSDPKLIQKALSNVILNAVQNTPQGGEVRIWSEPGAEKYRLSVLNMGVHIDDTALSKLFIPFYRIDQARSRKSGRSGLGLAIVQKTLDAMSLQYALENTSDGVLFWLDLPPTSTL
full-length VanSB (in nanodiscs), sequence (Q47745 whole entry, the tested form may be a part): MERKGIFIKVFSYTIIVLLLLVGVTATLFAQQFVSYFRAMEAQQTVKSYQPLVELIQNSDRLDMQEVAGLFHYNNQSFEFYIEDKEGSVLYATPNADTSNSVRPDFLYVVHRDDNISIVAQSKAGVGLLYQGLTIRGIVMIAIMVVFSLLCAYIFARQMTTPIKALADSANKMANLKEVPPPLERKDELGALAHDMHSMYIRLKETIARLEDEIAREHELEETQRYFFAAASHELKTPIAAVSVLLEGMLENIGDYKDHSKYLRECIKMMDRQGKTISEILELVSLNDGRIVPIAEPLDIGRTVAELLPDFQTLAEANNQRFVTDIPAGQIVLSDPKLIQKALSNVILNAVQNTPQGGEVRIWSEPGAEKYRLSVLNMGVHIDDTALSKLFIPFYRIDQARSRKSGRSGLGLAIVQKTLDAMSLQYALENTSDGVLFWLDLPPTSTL

In the case of `Nc1ncnc2c1ncn2[C@@H]1O[C@H](COP(=O)(O)OP(=O)(O)OP(O)(O)=S)[C@@H](O)[C@H]1O` [ATPγS], the “autophosphorylation with ATPγS, anti-thiophosphohistidine (PNBM) Western blot” value [1] is reported as “autophosphorylation time course for full-length VanSB (reconstituted in nanodiscs) and its cytosolic domain”.

For `CN[C@H](CC(C)C)C(=O)N[C@H]1C(=O)N[C@@H](CC(N)=O)C(=O)N[C@H]2C(=O)N[C@H]3C(=O)N[C@H](C(=O)N[C@H](C(=O)O)c4cc(O)cc(O)c4-c4cc3ccc4O)[C@H](O)c3ccc(c(Cl)c3)Oc3cc2cc(c3O[C@@H]2O[C@H](CO)[C@@H](O)[C@H](O)[C@H]2O[C@H]2C[C@](C)(NC(=O)CCc3ccc4n3[B-](F)(F)[N+]3=C(C)C=C(C)C3=C4)[C@H](O)[C@H](C)O2)Oc2ccc(cc2Cl)[C@H]1O` [BODIPY-FL-vancomycin], the Kd [2] was 20.3 µM and the Kd [3] was 10.7 µM.

`CN[C@H](CC(C)C)C(=O)N[C@H]1C(=O)N[C@@H](CC(N)=O)C(=O)N[C@H]2C(=O)N[C@H]3C(=O)N[C@H](C(=O)N[C@H](C(=O)O)c4cc(O)cc(O)c4-c4cc3ccc4O)[C@H](O)c3ccc(c(Cl)c3)Oc3cc2cc(c3O[C@@H]2O[C@H](CO)[C@@H](O)[C@H](O)[C@H]2O[C@H]2C[C@](C)(N)[C@H](O)[C@H](C)O2)Oc2ccc(cc2Cl)[C@H]1O` [vancomycin] was tested, and the Kd [4] was 20.7 µM, the EC50 [5] was 43 ± 12.5 µM and the Kd [6] was 11 µM.

Work on AF488-vancomycin yielded a Kd [3] of 11 µM.
